Reference: patent publication US20090149412A1, “Method for Inhibition of Phospholamban Activity for the Treatment of Cardiac Disease and Heart Failure” (THE REGENTS OF THE UNIVERSITY OF CALIFORNIA, priority 1999, published 2009)
Where “and” joins values, the source holds several entries; their conditions need not be identical. Equal entries are not always repeated.

Assays:
Format in all cases: cell-based
[1] = system: isolated mouse cardiomyocytes; assay: Contraction cycle of isolated mouse cardiomyocytes with penetratin-PLB peptide; conditions: 10 μM peptide; for Maximum Contract. / Minimum Contract.: arbitrary unit of length, single samples 1-7 and Mean; for Relax. Slope: control mean 0.9814
Excerpt: Cell level studies were done to evaluate the ability of two penetratin-based peptides, two mutant PLB-penetratin peptides, and two multiple antigen peptides (MAP) to strengthen the contraction cycle of isolated mouse cardiomyocytes. The two penetratin-based peptides include PLB-ANT (Seq. ID. No. 10) and TAT-PLB (Seq. ID. No. 11) each of which have a 20 residue portion of the PLB sequence attached to either the 5′ end of ANT (Seq. ID. No. 14) or the 3′ end of TAT (Seq. ID. No. 15). The two mutant PLB peptides, mutant PLB-ANT (Seq. ID. No. 12) and TAT-mutant PLB (Seq. ID No. 13), display a S16E mutation of the 20 residue PLB sequence. The multiple antigen peptides include MAP with 8 penetratin (ANT) domains and MAP with 4 penetratin domains and 4 PLB domains.
Each of the penetratin-PLB peptides were evaluated to measure their ability to strengthen the contraction cycle of isolated mouse cardiomyocytes, the idea being that the penetratin-PLB peptide would act as a dominant negative inhibitor of the PLE3-SERCA2a interaction.
Measurements were taken every 20 milliseconds, and the unit of length was arbitrary, but was generally on the order of one complete cell length. Percent contraction was calculated as (maximum length minus minimum length) divided by maximum length. A plot of time versus length generated a U-shaped curve from which the most linear segments were selected, with the left side of the “U” representing contraction and the right side representing relaxation.

PLB protein = assay: Western blot quantification of PLB protein content in myocytes infected with adenovirus transgenes; conditions: normalized to a-actin, compared with adenovirus/SR control lacking the transgene
Excerpt: FIG. 6a is a Western blot analysis of myocytes containing the adenovirus transgenes expressing sense PLB (sPLB), antisense PLB (asPLB), E2A, R14E, S16N, and K3E/R14E against monoclonal PLB. FIG. 6b is a Western blot showing the results of cell infectivity by PLB, sPLB and K3E/R14E. FIG. 6c illustrates the Western blot analysis of PLB infectivity of So18 cells.
Additional Western blot analysis of myocytes containing the adenovirus transgenes expressing sense PLB (sPLB), antisense PLB (asPLB), E2A, R14E, S1.6N, and K3E/R14E against monoclonal PLB antibody (Affinity BioReagents) is shown in FIG. 6a. […] In contrast, asPLB and S16N results in 54% and 33% decrease in PLB protein content within the myocytes. The introduction of K3E/R14E transgene infection of myocytes leads to a formation of a distinct pattern of pentamer PLB. Multiple PLB bands appear in addition to PLB5 (the pentamer).

SR Ca2+ transport = assay: Radioactive Ca2+ transport assay (SR Ca2+ transport); conditions: adenoviral vector expressing contractilin, rat cardiomyocytes
Procedure: The amplified and purified hypervariable region RNA is then fused to a single cDNA (Seq. ID. No. 9) and subsequently cloned in frame into a plasmid vector, coding for a phage surface protein. Using standard phage display technique, phages which express the immune library of the chicken are selected by their positive response to the PLB peptide. After a series of enrichment for phages which specifically bind PLB, 20 clones are selected for ELISA. The resulting 5 best binders are then analyzed using a radioactive Ca^2+ transport assay. The two best activators of SR Ca^2+ transport are further analyzed. Both clones are found to dramatically stimulate the rate of Ca^2+ transport into the SR.

Molecule: TAT-PLB: 20 residue portion of the PLB sequence attached to the 3′ end of TAT, Seq. ID. No. 11 (GGGGYGRKKRRQRRRMEKVQYLTRSAIRRASTIEM; listed as Homo sapiens)
- effect on myocyte contraction (overall) ([1]; T-test, no statistical difference): trend towards a larger, faster contraction
- Maximum Contract. [1]: 112.57 and 109.68 and 133.82 and 81.61 and 74.423 and 126.89 and 133.61
- Minimum Contract. [1]: 101.17 and 102.00 and 116.32 and 67.871 and 64.629 and 108.38 and 128.21
- Maximum Contract. ([1]; mean): 110.373
- Minimum Contract. ([1]; mean): 98.363
- Relax. Slope [1]: 0.9925 and 0.9790 and 0.9878 and 0.9697 and 0.9933 and 0.9939 and 0.9959
- Relax. Slope ([1]; mean): 0.9874

Molecule: R14E: adenoviral single point mutation of PLB, Seq. ID. No. 4 (MEKVQYLTRSAIREASTIEMPQQARQKLQNLFINFCLILICLLLICIIVMLL; adenoviral vector; listed as Homo sapiens)
- increase in PLB protein level (PLB protein): 57%

Molecule: E2A: adenoviral single point mutation of PLB, Seq. ID. No. 3 (MAKVQYLTRSAIRRASTIEMPQQARQKLQNLFINFCLILICLLLICIIVMLL; adenoviral vector; listed as Homo sapiens)
- increase in PLB protein level (PLB protein): 72%

B1: contractilin: recombinant protein from chicken polyclonal PLB antibody hypervariable regions, expressed from adenoviral vector (Seq. ID. No. 9) (protein, listed as Homo sapiens)
chain: MHHHHHHVAQAALTHSSSVSANPGETVKITCSGGGNYAGSYYYGWFQQKSPGSAPVTVIYSNDQRPSNIPSRFSGSTSGSTSTLTITGVRAEDEAVYFCGSNSGTGYVGIFGAGTTLTVLGQSSRSSTVTLDESGGGLQTPGGALSLVCRASGFTFSRFHMMWVRQAPGKGLEWVAGIDDGGSFTLYGAAVKGRATILRDNGQSTVRLQLDNLRPEDTATYFCVKTKCGGNGWCGADRIDAWGHGTEVIVSSTSGQAGQYPYDVPDYAS
- cytoplasmic Ca2+ removal (SR Ca2+ transport): accelerates cytoplasmic Ca^2+ removal
